Structures can show the parent of a compound that is named as a salt.
Molecular target: T1, Cloned Human Serotonin Receptor, Subtype 7 (h5HT7) (Homo sapiens, UniProt P34969)
T1 construct: purchased PerkinElmer 6120512; host or cells: CHO cells (membranes coated on Basic FlashPlate SMP200)
Assay: Radioligand binding assay, [125I]LSD, h5HT7 expressed in CHO cells
Conditions: radioligand [125I]LSD 0.82 nM; for IC50: read-out: 5-HT7 IC50; for Ki: read-out: 5-HT7 Ki
Protocol: Radioligand binding assays were performed using the Cloned Human Serotonin Receptor, Subtype 7 (h5HT7), expressed in CHO cells, coated on Flashplate (Basic FlashPlate Cat.: SMP200) from PerkinElmer (Cat.: 6120512). The protocol assay was essentially the recommended protocol in the Technical Data Sheet by PerkinEmer Life and Analytical Sciences. The Mass membrane protein/well was typically 12 μg and the Receptor/well was about 9-10 fmoles. The Flashplate were let equilibrate at room temperature for one hour before the addition of the components of the assay mixture. The binding buffer was: 50 mM Tris-HCl, pH 7.4, containing 10 mM MgCl2, 0.5 mM EDTA and 0.5% BSA. The radioligand was [^125I]LSD at a final concentration of 0.82 nM. Nonspecific binding was determined with 50 μM of Clozapine. The assay volume was 25 μl. TopSeal-A were applied onto Flashplate microplates and they were incubated at room temperature for 240 minutes in darkness. The radioactivity were quantified by liquid scintillation spectrophotometry (Wallac 1450 Microbeta Trilux) with a count delay of 4 minutes prior to counting and a counting time of 30 seconds per well. Competition binding data were analyzed by using the LIGAND program (Munson and Rodbard, LIGAND: A versatile, computerized approach for characterization of ligand-binding systems. Anal. Biochem. 107: 220-239, 1980) and assays were performed in triplicate determinations for each point.

T1 sequence (P34969 whole entry): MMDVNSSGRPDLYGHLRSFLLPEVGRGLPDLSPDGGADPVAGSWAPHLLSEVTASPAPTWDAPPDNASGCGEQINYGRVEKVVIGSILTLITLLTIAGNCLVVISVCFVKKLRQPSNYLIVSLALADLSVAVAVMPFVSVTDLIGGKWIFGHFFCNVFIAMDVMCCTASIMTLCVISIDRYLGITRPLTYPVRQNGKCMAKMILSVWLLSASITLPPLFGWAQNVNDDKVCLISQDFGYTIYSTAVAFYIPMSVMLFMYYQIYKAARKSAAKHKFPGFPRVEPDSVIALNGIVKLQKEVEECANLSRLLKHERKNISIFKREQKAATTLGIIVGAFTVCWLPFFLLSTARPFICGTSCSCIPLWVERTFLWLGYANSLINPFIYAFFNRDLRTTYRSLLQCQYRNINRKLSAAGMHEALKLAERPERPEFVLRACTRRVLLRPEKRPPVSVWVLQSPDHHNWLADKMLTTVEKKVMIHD

Row | Structure (SMILES) | IC50 | Ki
1 | CNC1CCc2ccc(-c3c(OC)cccc3OC)cc21 (stereo not drawn) [Example 11, [6-(2,6-Dimethoxy-phenyl)-indan-1-yl]-methyl-amine] | 195 ± 86 nM | –
2 | COc1cccc(Cl)c1-c1ccc2c(c1)C(N(C)C)CC2 (stereo not drawn) [Example 20, [6-(2-Chloro-6-methoxy-phenyl)-indan-1-yl]-dimethyl-amine] | – | 25.8 ± 2.7 nM
3 | Cc1nn(C)c(C)c1-c1ccc2c(c1)[C@@H](N(C)C)CC2 [Example 3, (S) Dimethyl-[6-(1,3,5-trimethyl-1H-pyrazol-4-yl)-indan-1-yl]-amine] | 307 ± 181 nM | –
4 | CNC1CCc2ccc(-c3c(C)nn(C)c3C)cc21 (stereo not drawn) [Example 4, Methyl-[6-(1,3,5-trimethyl-1H-pyrazol-4-yl)-indan-1-yl]-amine] | 18.7 nM | –
5 | Cc1nn(C)c(C)c1-c1ccc2c(c1)[C@H](N(C)C)CC2 [Example 2, (R)-Dimethyl-[6-(1,3,5-trimethyl-1H-pyrazol-4-yl)-indan-1-yl]-amine] | 5.5 ± 2.7 nM | –
6 | Cc1cccc(C)c1-c1ccc2c(c1)C(N(C)C)CC2 (stereo not drawn) [Example 14, [6-(2,6-Dimethyl-phenyl)-indan-1-yl]-dimethyl-amine] | – | 198 ± 31.9 nM
7 | Cc1nn(C)c(C)c1-c1ccc2c(c1)C(N(C)C)CC2 (stereo not drawn) [Example 1, Dimethyl-[6-(1,3,5-trimethyl-1H-pyrazol-4-yl)-indan-1-yl]-amine dihydrochloride] | 15.5 ± 2.9 nM | –
8 | CNC1CCc2ccc(-c3c(F)cccc3F)cc21 (stereo not drawn) [Example 19, [6-(2,6-Difluoro-phenyl)-indan-1-yl]-methyl-amine] | – | 47.6 ± 1.2 nM
9 | CNC1CCc2ccc(-c3ccccc3OC)cc21 (stereo not drawn) [Example 13, [6-(2-Methoxy-phenyl)-indan-1-yl]-methyl-amine] | 77.7 ± 40.9 nM | –
10 | COc1ccccc1-c1ccc2c(c1)C(N(C)C)CC2 (stereo not drawn) [Example 12, [6-(2-Methoxy-phenyl)-indan-1-yl]-dimethyl-amine] | 68.4 ± 1.1 nM | –
11 | CNC1CCc2ccc(-c3c(C)cccc3C)cc21 (stereo not drawn) [Example 15, [6-(2,6-Dimethyl-phenyl)-indan-1-yl]-methyl-amine] | – | 75.2 ± 2 nM
12 | CNC1CCc2ccc(-c3c(Cl)cccc3OC)cc21 (stereo not drawn) [Example 21, [6-(2-Chloro-6-methoxy-phenyl)-indan-1-yl]-methyl-amine] | – | 55.7 ± 1.2 nM
13 | COc1cccc(OC)c1-c1ccc2c(c1)C(N(C)C)CC2 (stereo not drawn) [Example 10, [6-(2,6-Dimethoxy-phenyl)-indan-1-yl]-dimethyl-amine] | 53.5 ± 10.1 nM | –
14 | CN[C@@H]1CCc2ccc(-c3c(C)nn(C)c3C)cc21 [Example 38, (R) Methyl-[6-(1,3,5-trimethyl-1H-pyrazol-4-yl)-indan-1-yl]-amine] | – | 73.3 ± 9.3 nM
15 | Cc1nn(C)c(C)c1-c1ccc2c(c1)C([N+](C)(C)C)CC2 (stereo not drawn) [Example 36, Trimethyl-[6-(1,3,5-trimethyl-1H-pyrazol-4-yl)-indan-1-yl]-ammonium iodide] | – | 153 ± 32.4 nM
